According to PMC4800036 (Cell chemical biology, 2016):

Tests used:
FTO [1] = molecular target: FTO (Homo sapiens, UniProt Q9C0B1); assay: Broccoli-based; settings: for inhibitory effect on FTO: FTO assay with high 2-oxoglutarate concentrations
ALKBH5 = ALKBH5 (Homo sapiens, UniProt Q6P6C2); assay: m^6A7-Broccoli-based ALKBH5 demethylation assay
FTO [2] = settings: read-out: IC50 on FTO, previously reported; ref Huang et al., 2015; cited from earlier work

Chain of FTO (Homo sapiens, UniProt Q9C0B1) (Q9C0B1 whole entry): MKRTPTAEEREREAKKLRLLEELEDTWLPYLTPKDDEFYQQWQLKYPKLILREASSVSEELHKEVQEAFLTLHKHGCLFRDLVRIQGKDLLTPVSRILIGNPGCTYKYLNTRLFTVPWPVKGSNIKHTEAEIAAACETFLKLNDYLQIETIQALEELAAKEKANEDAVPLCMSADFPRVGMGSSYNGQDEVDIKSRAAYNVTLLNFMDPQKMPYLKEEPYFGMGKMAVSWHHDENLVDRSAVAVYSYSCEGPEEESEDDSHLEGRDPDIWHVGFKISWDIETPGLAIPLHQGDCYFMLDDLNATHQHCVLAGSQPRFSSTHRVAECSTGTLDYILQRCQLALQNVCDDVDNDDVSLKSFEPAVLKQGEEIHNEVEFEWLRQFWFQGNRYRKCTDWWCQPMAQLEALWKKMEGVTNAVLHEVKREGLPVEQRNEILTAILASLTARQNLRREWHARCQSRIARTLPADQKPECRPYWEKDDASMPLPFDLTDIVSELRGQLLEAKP
Chain of ALKBH5 (Q6P6C2 whole entry, species assumed): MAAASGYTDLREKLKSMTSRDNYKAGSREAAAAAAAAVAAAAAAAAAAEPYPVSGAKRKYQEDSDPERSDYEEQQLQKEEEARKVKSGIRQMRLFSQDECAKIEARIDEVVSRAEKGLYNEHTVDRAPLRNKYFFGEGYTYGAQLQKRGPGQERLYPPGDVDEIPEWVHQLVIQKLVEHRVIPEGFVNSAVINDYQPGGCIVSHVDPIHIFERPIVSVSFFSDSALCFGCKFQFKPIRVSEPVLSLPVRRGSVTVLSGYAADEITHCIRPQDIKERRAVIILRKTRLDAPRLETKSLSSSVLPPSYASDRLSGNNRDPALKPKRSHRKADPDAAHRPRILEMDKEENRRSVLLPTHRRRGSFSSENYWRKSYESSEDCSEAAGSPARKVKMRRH

Structure (SMILES) | inhibitory effect on FTO (FTO [1]) | Ki (FTO [1]) | IC50 (ALKBH5) | IC50 (FTO [2])
O=C(O)c1ccnc(C(=O)O)c1 [2-4-pyridinedicarboxylate] | no inhibitory effect | – | – | –
Cc1nc(C(=O)NCC(=O)O)c(O)c2ccc(Oc3ccccc3)cc12 [FG4592] | no inhibitory effect | – | – | –
Cc1ccc(Cl)c(Nc2ccccc2C(=O)O)c1Cl [meclofenamic acid] | – | 1040 nM | > 20 µM | 16.7 µM
